Measured values: article PMC4368859 (International Journal of Neuropsychopharmacology, 2014)
Several values for one entry are separate records, joined by “and”; a condition that tells them apart may be missing. Equal entries are not always repeated.

What was measured:
[1] = test system: [^3H]-cocaine uptake in hCMEC/D3 cells; assay type: cell-based, human
[2] = test system: cocaine transporter in hCMEC/D3 cells; experiment: trans-stimulation of [^3H]-cocaine exit from hCMEC/D3 cells; settings: 10 µM unlabeled compound in KH buffer after 5 minutes loading; vs control
[3] = ref Gatley et al., 1994; Chow et al., 2001; cited from earlier work
OCTs = experiment: MPP+ transport in hCMEC/D3 cells; assay type: cell-based, human; settings: TEA 2mM, data not shown
[4] = in water; ref Lu et al., 2007; cited from earlier work
hCMEC/D3 cells = experiment: cocaine uptake in hCMEC/D3 cells; assay type: in vitro ADME, human
[5] = pKa and ionised/neutral fraction of the drug as a function of pH; assay type: physicochemical
mouse luminal BBB = experiment: cocaine brain transport by in situ mouse carotid perfusion; assay type: in vivo; settings: for Brain transport (K in): 9nM; for decrease in [^3H]-cocaine transport by unlabeled cocaine: unlabeled cocaine 10mM, mouse BBB
[6] = in vivo, concentrations less than K m

Ecgonine
Relative uptake of [^3H]-cocaine [1]: 103.9±8.7% and 93.2±2.5% and 75.3±5.0 %

CCCC(C(=O)c1ccc2c(c1)OCO2)N1CCCC1 (stereo not drawn) [MDPV, 3,4-methylenedioxypyrovalerone]
trans-stimulation of [^3H]-cocaine exit (trans-efflux zero) [2]: strongly stimulated | Relative uptake of [^3H]-cocaine [1]: 18.1±0.4 %

CN1[C@H]2CC[C@@H]1[C@@H](C(=O)O)[C@@H](OC(=O)c1ccccc1)C2 [Benzoylecgonine]
trans-stimulation of [^3H]-cocaine exit (trans-efflux zero) [2]: lack of a trans-stimulation effect | brain uptake [3]: no significant brain uptake | Relative uptake of [^3H]-cocaine [1]: 104.1±3.0% and 94.2±14.9% and 72.0±11.4 %

CC[N+](CC)(CC)CC [TEA, tetraethylammonium]
effect on MPP^+ transport (OCTs): significantly inhibited | Relative uptake of [^3H]-cocaine [1]: 120.6±9.8%

C=CCN1CC[C@]23c4c5ccc(O)c4O[C@H]2C(=O)CC[C@@]3(O)[C@H]1C5 [Naloxone]
Relative uptake of [^3H]-cocaine [1]: 28.3±0.9 %

CN1CCC[C@H]1c1cccnc1 [Nicotine]
trans-stimulation of [^3H]-cocaine exit (trans-efflux zero) [2]: strongly stimulated

COc1ccc(CCN(C)CCCC(C#N)(c2ccc(OC)c(OC)c2)C(C)C)cc1OC (stereo not drawn) [Verapamil]
Relative uptake of [^3H]-cocaine [1]: 3.7±0.2 %

COC(=O)[C@H]1[C@@H](OC(=O)c2ccccc2)C[C@@H]2CC[C@H]1N2C [cocaine, (−)-Cocaine]
basic pK a [4]: 8.6 | K m of carrier-mediated uptake (hCMEC/D3 cells; KH buffer pH 7.40, 37°C, 5 minutes, 0.05–10mM): 123 ± 23 µM | increase in uptake after NH4Cl prepulse (acidification) (hCMEC/D3 cells; NH4Cl 30mM prepulse): 1.85 fold | effect of NH4Cl pulse (alkalinization) on uptake (hCMEC/D3 cells; NH4Cl 30mM, pHe 7.40): significantly decreased | K passive (passive diffusion) (hCMEC/D3 cells; pH 7.40): 1.09 ± 0.09 µL/min/mg | increase in uptake vs pHe 5.40 (hCMEC/D3 cells; pHe 6.40): 2.5 fold | increase in uptake vs pHe 5.40 (hCMEC/D3 cells; pHe 7.40): 4.6 fold | transport in NMDG-buffer relative to KH buffer control (hCMEC/D3 cells; sodium replaced, pHe 7.40, 5 minutes, control 100.0±9.0%): 97.0±9.7% | positively charged fraction ([5]; pH 7.4): 94% | uncharged fraction ([5]; pH 7.4): 6% | neutral fraction ([5]; pHe 5.40): 0.06% | cationic form ([5]; pHe 5.40 or 6.40): > 99.4% | neutral fraction ([5]; pHe 6.40): 0.6% | neutral fraction ([5]; pHe 7.40): 5.9% | Brain transport (K in) (mouse luminal BBB; C57Bl/6 mice, 60 seconds, Krebs-carbonate pH 7.40): 19 ± 2 µL/s/g | Brain transport (K in) (mouse luminal BBB; DBA mice, 60 seconds, Krebs-carbonate pH 7.40): 21 ± 2 µL/s/g | Brain transport (K in) (mouse luminal BBB; Fvb [Oct1,Oct2(−/−)] mice, 60 seconds): 19 ± 2 µL/s/g | Brain transport (K in) (mouse luminal BBB; Fvb wild-type mice, 60 seconds, Krebs-carbonate pH 7.40): 20 ± 2 µL/s/g | Brain transport (K in) (mouse luminal BBB; Swiss mice, 60 seconds, Krebs-carbonate pH 7.40): 20 ± 2 µL/s/g | K passive (passive diffusion) (mouse luminal BBB; Swiss mice, pHe 7.40): 4.5±1.0 µL/sec/g and ~ 4.5 µL/sec/g | apparent K m of carrier-mediated brain flux (mouse luminal BBB; Swiss mice, pHe 7.40): 4500 ± 1800 µM | V max of carrier-mediated brain flux (mouse luminal BBB; Swiss mice, pHe 7.40, per g of brain): 127.2 ± 34.5 nmol/s/g | total brain extraction (mouse luminal BBB; compared with the vascular flow marker diazepam): about 47% | concentration at which passive diffusion and carrier-mediated flux are equal (mouse luminal BBB; from Equation 7): around 24 mM | carrier-mediated influx relative to passive diffusion (mouse luminal BBB; [6]): 3.4 times | carrier-mediated transport rate (mouse luminal BBB; [6]): ~ 15.5 µL/sec/g | increase in brain transport vs pHe 5.40 (mouse luminal BBB; mice, 60 seconds, pHe 6.40): 4.7 fold | increase in brain transport vs pHe 5.40 (mouse luminal BBB; mice, 60 seconds, pHe 7.40): 16.9 fold | reduction in brain transport by NH4Cl pulse (mouse luminal BBB; mice, NH4Cl 30mM, pHe 7.40, 60 seconds): 1.8 fold | decrease in brain transport with HEPES-buffer vs Krebs-carbonate buffer (mouse luminal BBB; mice, carbonate-free HEPES buffer): 1.8 fold | increase in K in with mannitol perfusion buffer vs Krebs-carbonate (mouse luminal BBB; mice, sodium-free and chloride-free buffer): 1.35 fold | effect of lithium (Na+-free) buffer on brain transport (mouse luminal BBB; mice, vs regular Krebs-carbonate buffer): no significant change | net brain transport rate (K in) under unsaturated conditions (mouse luminal BBB; pharmacological concentration range): about 20 µL/sec/g | decrease in [^3H]-cocaine transport by unlabeled cocaine (mouse luminal BBB; pHe 5.40): 1.8 fold | decrease in [^3H]-cocaine transport by unlabeled cocaine (mouse luminal BBB; pHe 6.40): 2.0 fold | decrease in [^3H]-cocaine transport by unlabeled cocaine (mouse luminal BBB; pHe 7.40): 1.9 fold

COc1ccc2c3c1O[C@H]1[C@@H](O)C=C[C@H]4[C@@H](C2)N(C)CC[C@@]341 [Codeine]
Relative uptake of [^3H]-cocaine [1]: 63.4±5.0 %
